Reference: patent US10738071B2, “Polymorphic forms of sofosbuvir” (Mylan Laboratories Limited, priority 2016, dated 2020)

Assay: physical and chemical stability of sofosbuvir form-M3 on storage (water content, PXRD, HPLC purity)
Assay type: physicochemical
Method: The crystalline sofosbuvir form-M3 disclosed herein may be characterized by X-ray powder diffraction. Therefore, samples of crystalline sofosbuvir form-M3 were analyzed on a PANalytical, X'pert PRO powder diffractometer equipped with goniometer of θ/θ configuration and X'Celerator detector. The Cu-anode X-ray tube was operated at 40 kV and 30 mA. The experiments were conducted over the 2θ range of 2.0°-50.0°, 0.030° step size and 50 seconds step time.
Water content was determined on an 841 Titrando Karl-Fischer titrator (Metrohm) by placing 40 mL dehydrated methanol in the titration vessel and titrating with a standardized reagent to reach the electrometric endpoint. A sample (e.g., 0.20 g sofosbuvir form-M3) was added, the mixture was stirred for 1 minute, then titrated to the endpoint with a Karl-Fischer reagent. For each determination, fresh methanol was used. The following calculations may be used to determine water content of each sample:
The physical and chemical stability of sofosbuvir form-M3 was determined by storing the samples at 25±2° C./60±5% relative humidity (RH) and at 40±2° C./75±5% RH for 6 months. The samples were tested to determine water content, detect degradation crystalline form by PXRD analysis, and measure purity by HPLC analysis. HPLC analysis was performed by the parameters listed below:
Chromatographic Conditions:
Injection volume: 20.0 μL
Column oven temperature: 45° C.
Sample temperature: 10° C.
Acquisition time: 25 minutes
Water: Acetonitrile (80:20) % v/v
As an example, Table 1 below discloses data collected on sofosbuvir form-M3 under various storage conditions.

[1] = stored at 25 ± 2° C./60 ± 5% RH, 1 months
[2] = stored at 25 ± 2° C./60 ± 5% RH, 2 months
[3] = stored at 25 ± 2° C./60 ± 5% RH, 3 months
[4] = stored at 25 ± 2° C./60 ± 5% RH, 6 months
[5] = stored at 25 ± 2° C./60 ± 5% RH, Initial
[6] = stored at 40 ± 2° C./75 ± 5% RH, 1 months
[7] = stored at 40 ± 2° C./75 ± 5% RH, 2 months
[8] = stored at 40 ± 2° C./75 ± 5% RH, 3 months
[9] = stored at 40 ± 2° C./75 ± 5% RH, 6 months
[10] = stored at 40 ± 2° C./75 ± 5% RH, Initial
[11] = up to six months at 25±2° C./60±5% RH and at 40±2° C./75±5% RH

**Q.** With `CC(C)OC(=O)[C@H](C)N[P@](=O)(OC[C@H]1O[C@@H](n2ccc(=O)[nH]c2=O)[C@](C)(F)[C@@H]1O)Oc1ccccc1` [sofosbuvir form-M3, (S)-isopropyl 2-((S)-(((2R,3R,4R,5R)-5-(2,4-dioxo3,4-dihydropyrimidin-1(2H)-yl)-4-fluoro-3-hydroxy-4-methyltetrahydrofuran-2yl)methoxy)-(phenoxy)phosphorylamino)propanoate] as the compound, how does the “HPLC Purity” value [1] read?
**A.** 99.90%

**Q.** What about the PXRD [1] of the same compound?
**A.** form-M3

**Q.** What about the Water content [1] of the same compound?
**A.** 3.39%

**Q.** What about the “HPLC Purity” value [2] of the same compound?
**A.** 99.90%

**Q.** What about the PXRD [2] of the same compound?
**A.** form-M3

**Q.** And the Water content [2]?
**A.** 3.45%

**Q.** And the “HPLC Purity” value [3]?
**A.** 99.89%

**Q.** And the PXRD [3]?
**A.** form-M3

**Q.** What about the Water content [3] of the same compound?
**A.** 3.35%

**Q.** What about the “HPLC Purity” value [4] of the same compound?
**A.** 99.92%

**Q.** And the PXRD [4]?
**A.** form-M3

**Q.** And the Water content [4]?
**A.** 3.34%

**Q.** What about the “HPLC Purity” value [5] of the same compound?
**A.** 99.92%

**Q.** What about the PXRD [5] of the same compound?
**A.** form-M3

**Q.** And the Water content [5]?
**A.** 3.59%

**Q.** What about the “HPLC Purity” value [6] of the same compound?
**A.** 99.90%

**Q.** What about the PXRD [6] of the same compound?
**A.** form-M3

**Q.** And the Water content [6]?
**A.** 3.55%

**Q.** What about the “HPLC Purity” value [7] of the same compound?
**A.** 99.90%

**Q.** What about the PXRD [7] of the same compound?
**A.** form-M3

**Q.** And the Water content [7]?
**A.** 3.33%

**Q.** What about the “HPLC Purity” value [8] of the same compound?
**A.** 99.89%

**Q.** And the PXRD [8]?
**A.** form-M3

**Q.** What about the Water content [8] of the same compound?
**A.** 3.19%

**Q.** What about the “HPLC Purity” value [9] of the same compound?
**A.** 99.91%

**Q.** And the PXRD [9]?
**A.** form-M3

**Q.** What about the Water content [9] of the same compound?
**A.** 3.00%

**Q.** And the “HPLC Purity” value [10]?
**A.** 99.92%

**Q.** And the PXRD [10]?
**A.** form-M3

**Q.** And the Water content [10]?
**A.** 3.59%

**Q.** And the “change in PXRD pattern on storage” value [11]?
**A.** no significant change in PXRD pattern

**Q.** And the “change in moisture content on storage” value [11]?
**A.** no significant change in moisture content

**Q.** What about the “change in purity on storage” value [11] of the same compound?
**A.** no significant change in purity
